Reference: patent publication US12421242B2, “Substituted tetrahydropyrrolo-pyridinone compounds and their use in treating medical conditions” (Karuna Therapeutics, Inc., priority 2022, dated 2025)

How the values were obtained:
rM4 receptors = target: T1, rM4 receptors (Rattus norvegicus, UniProt P08485); experiment: Rat M4 PAM pERK assay; format: cell-based; conditions: PAM mode
T1 construct: expressed in transfected cells; host or cells: CHO cells
T1 sequence (P08485 1-478): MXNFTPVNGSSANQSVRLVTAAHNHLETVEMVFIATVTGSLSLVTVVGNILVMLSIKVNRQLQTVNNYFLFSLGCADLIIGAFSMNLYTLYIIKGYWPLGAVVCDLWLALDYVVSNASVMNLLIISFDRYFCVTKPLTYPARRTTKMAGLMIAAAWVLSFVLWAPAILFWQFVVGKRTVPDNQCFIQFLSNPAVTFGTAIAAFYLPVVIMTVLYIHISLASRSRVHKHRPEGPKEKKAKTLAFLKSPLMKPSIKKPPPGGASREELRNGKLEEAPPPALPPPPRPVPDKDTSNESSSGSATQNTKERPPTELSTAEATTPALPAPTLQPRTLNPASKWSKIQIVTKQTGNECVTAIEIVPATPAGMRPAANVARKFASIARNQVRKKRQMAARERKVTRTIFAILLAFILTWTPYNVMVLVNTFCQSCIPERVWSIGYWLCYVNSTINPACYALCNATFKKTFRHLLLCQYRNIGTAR
In short: (§1)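 CHO cells expressing hM4 or rM4 were serum-starved 4 h, then given compound (ten-point curve, 10 μM top, duplicate) with an EC20 of acetylcholine (10 nM final) for 5 min at 37° C. Phospho-ERK in lysates was detected by TR-FRET.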

hM4 receptors = target: T2, hM4 receptors (Homo sapiens, UniProt P08173); experiment: Human M4 PAM pERK assay; format: cell-based; conditions: PAM mode
T2 construct: expressed in transfected cells; host or cells: CHO cells
T2 sequence (P08173 1-479): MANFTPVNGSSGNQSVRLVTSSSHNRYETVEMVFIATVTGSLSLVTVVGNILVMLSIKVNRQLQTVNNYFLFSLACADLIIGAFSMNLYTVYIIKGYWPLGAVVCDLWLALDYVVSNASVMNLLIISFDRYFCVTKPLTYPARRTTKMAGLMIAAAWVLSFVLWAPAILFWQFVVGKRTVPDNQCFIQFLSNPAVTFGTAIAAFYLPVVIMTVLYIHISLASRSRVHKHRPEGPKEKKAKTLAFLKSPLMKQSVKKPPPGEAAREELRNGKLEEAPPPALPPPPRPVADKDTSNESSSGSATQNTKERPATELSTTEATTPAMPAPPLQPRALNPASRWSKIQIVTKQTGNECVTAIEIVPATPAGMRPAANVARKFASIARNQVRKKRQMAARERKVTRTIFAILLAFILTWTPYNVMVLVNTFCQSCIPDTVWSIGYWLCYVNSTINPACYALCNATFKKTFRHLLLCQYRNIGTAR
In short: as §1

human M4 receptor = target: T3, human M4 receptor (Homo sapiens, UniProt P08173); experiment: M4 GTPγS PAM assay; format: biochemical; conditions: CHO-K1 membranes expressing human M4, with EC20 acetylcholine (40 nM)
T3 construct: expressed in transfected cells
T3 sequence (P08173 1-479): T2 sequence (P08173 1-479)
Experimental: The M4 GTPγS PAM method was used. Membranes were prepared for GTPgS binding assays from CHO-K1 cells stably expressing human M4 receptor. Briefly, cells were grown in 5-layer cell culture flasks. Cells were washed with 50 mL of PBS and then dissociated with 0.05% trypsin. Dissociated cells were then collected by centrifugation at 650×g for 8 minutes at 4° C. Pellets were washed again in PBS by centrifugation and resuspended in 30 mL of 20 mM HEPES, 10 mM EDTA, pH 7.4. After sitting on ice for 30 min, membranes were collected by centrifugation at 50000×g for 15′ at 4° C., resuspended in 30 mL of 20 mM HEPES, 0.1 mM EDTA, pH 7.4 and collected again by centrifugation. Pellets were then washed twice by centrifugation in 30 mL of 20 mM HEPES, pH 7.4, and stored at −80° C. until the day of the assay. On the day of the assay, pellets were thawed on ice and resuspended in 1 mL of 20 mM HEPES, pH 7.4, 10 mM MgCl2, 100 mM NaCl using dounce homogenization. Membrane protein concentration is determined by BCA protein assay (Promega, Madison, WI) according to Promega guidelines.
On the day of the assay, serial dilutions of test PAM compounds were brought up in assay buffer (20 mM HEPES, 10 mM MgCl2, 100 mM NaCl) at 4× final assay concentration. […] of membrane homogenates (containing […] of membrane protein) were prepared in assay buffer supplemented with GDP at 4× final assay concentration (final assay concentration of GDP is 5 uM for M2 and 0.1 uM for M4) and dispensed into 96 well polypropylene, U-bottom Greiner plates. […] of vehicle or test PAM compound at 4× of final assay concentration diluted in the assay buffer were added to membrane and plates are incubated for 10-15 minutes at room temperature with gentle shaking. Then, […] of EC20 acetylcholine in assay buffer at 4× final assay concentration was added to assay plates (EC20 final assay concentrations was 40 nM for human M4).
Plates were then incubated, with shaking, for an additional 10-15 minutes. 25 mL of 0.4 nM ^35S-GTP (Perkin Elmer, Waltham, MA) in assay buffer was added to assay mixtures. The binding reaction is left on the shaker for 1 hour at room temperature. Membranes in assay reactions were then transferred to GF/C filter plates (Unifilter, Perkin Elmer) and washed three times using a FilterMate Harvester (Perkin Elmer) with cold assay buffer containing no GDP. Filter plates were then dried at 40° C. overnight followed by the addition of […] of Beta Plate Scintillation liquid. Plates are top and bottom sealed before being read on TopCount scintillation counter (Perkin Elmer, Waltham, MA).

Row | EC50 (rM4 receptors) [µM] | EC50 (hM4 receptors) [µM] | EC50 (human M4 receptor) [µM] | SMILES
1 | > 2 | 0.5 to 2 | > 2 | Cc1c2c(n(C)c(=O)c1Cl)CN(C(=O)c1ccnc(C(F)(F)F)c1)C2 [Compound I-42]
2 | 0.5 to 2 | < 0.1 | 0.5 to 2 | COc1c2c(n(C)c(=O)c1Cl)CN(C(=O)c1cnn(C(F)(F)F)c1)C2C (single isomer, unassigned) [Compound I-74]
3 | 0.5 to 2 | < 0.1 | 0.5 to 2 | Cc1c2c(n(C)c(=O)c1Cl)CN(C(=O)c1cnc(C(F)(F)F)s1)C2 [Compound I-29]
4 | > 2 | < 0.1 | 0.5 to 2 | Cc1c2c(n(C)c(=O)c1F)CN(C(=O)c1cnn(C(F)(F)F)c1)C2 [Compound I-113, 3-Fluoro-1,4-dimethyl-6-(1-(trifluoromethyl)-1H-pyrazole-4-carbonyl)-1,5,6,7-tetrahydro-2H-pyrrolo[3,4-b]pyridin-2-one]
5 | > 2 | > 2 | > 2 | Cc1cc(=O)n(C)c2c1C(C)N(C(=O)c1cnn(C(F)(F)F)c1)C2 (single isomer, unassigned) [Compound I-92, 1,4,5-Trimethyl-6-(1-(trifluoromethyl)-1H-pyrazole-4-carbonyl)-1,5,6,7-tetrahydro-2H-pyrrolo[3,4-b]pyridin-2-one]
6 | > 2 | 0.5 to 2 | > 2 | Cc1c2c(n(C)c(=O)c1Cl)C(C)N(C(=O)c1cnn(C(F)(F)F)c1)C2 (single isomer, unassigned) [Compound I-108, 3-Chloro-1,4,7-trimethyl-6-(1-(trifluoromethyl)-1H-pyrazole-4-carbonyl)-1,5,6,7-tetrahydro-2H-pyrrolo[3,4-b]pyridin-2-one]
7 | 0.1 to 0.5 | 0.1 to 0.5 | 0.1 to 0.5 | Cc1c2c(n(CC(F)(F)F)c(=O)c1Cl)CN(C(=O)c1ccc3nc(C4CC4)sc3c1)C2 [Compound I-72]
8 | > 2 | > 2 | > 2 | Cc1cc(=O)n(C)c2c1C(C)N(C(=O)c1ccc3nc(C(F)(F)F)sc3c1)C2 (single isomer, unassigned) [Compound I-100]
9 | > 2 | > 2 | > 2 | Cc1cc(=O)n(C)c2c1C(C)N(C(=O)c1cnc(C3CC3)s1)C2 (single isomer, unassigned) [Compound I-96]
10 | > 2 | 0.1 to 0.5 | > 2 | Cc1cc(=O)n(C)c2c1C(C)N(C(=O)c1cnc(C3CC3)s1)C2 (single isomer, unassigned) [Compound I-97]
11 | > 2 | 0.5 to 2 | > 2 | Cc1c2c(n(C)c(=O)c1Cl)CN(C(=O)c1cn(C(C)C)cn1)C2 [Compound I-14]
12 | > 2 | > 2 | 0.5 to 2 | COC(C)(C)Cn1cc(C(=O)N2Cc3c(C)c(Cl)c(=O)n(C)c3C2)cn1 [Compound I-62]
13 | > 2 | > 2 | > 2 | COCCn1cc(C(=O)N2Cc3c(C)c(Cl)c(=O)n(C)c3C2)cn1 [Compound I-63]
14 | 0.5 to 2 | < 0.1 | 0.1 to 0.5 | Cc1c2c(n(C)c(=O)c1Cl)CN(C(=O)c1cnc(C(F)(F)C3CC3)s1)C2 [Compound I-67, 3-Chloro-6-(2-(cyclopropyldifluoromethyl)thiazole-5-carbonyl)-1,4-dimethyl-1,5,6,7-tetrahydro-2H-pyrrolo[3,4-b]pyridin-2-one]
15 | 0.5 to 2 | < 0.1 | 0.5 to 2 | Cc1c2c(n(C)c(=O)c1Cl)CN(C(=O)c1cnc(C(F)F)s1)C2 [Compound I-36]
16 | > 2 | 0.5 to 2 | > 2 | Cc1c2c(n(C)c(=O)c1Cl)CN(C(=O)c1cnc(C)n1C)C2 [Compound I-18]
